# Assay results taken from US20170143701A1, “CARBOHYDRATE METABOLISM-AMELIORATING AGENT” (SUNTORY HOLDINGS LIMITED, priority 2014, published 2017).
# Tested on: C57/BL6J mice
# Test: In vivo plasma GLP-1 level-increasing action: plasma active GLP-1 level (ELISA) after oral administration
# Conditions: 10 mg/kg oral; for Significant difference (p < 0.05) vs control group, plasma active GLP-1 level: 30 minutes, Student's t-test; for Plasma active GLP-1 level (relative value to control group as 100), average value: blood 30 minutes after, 0.5% CMC-Na group = 100
# Method: Seven-week-old male C57/BL6J mice were purchased from CLEA Japan, Inc. for use, and they were subjected to an experiment after 1 week of a habituation period.
# After the habituation period, the mice were subjected to 5.5 hours of food deprivation and 2 hours of water deprivation. Thereafter, a cyclic dipeptide dissolved or suspended in a 0.5% CMC-Na aqueous solution in 10 mg/kg was orally administered to each mouse forcibly. After 30 minutes, the blood was collected from the abdominal vena cava under anesthesia, and 1 μL of heparin sodium and 1 μL of 10 mM Sitagliptin phosphate were added to each collected blood, which was then subjected to centrifugation at 8000 rpm for 10 minutes to recover the plasma, and the plasma active GLP-1 level was measured by using the ELISA kit. In the analysis, the active GLP-1 level for a group administered with 0.5% CMC-Na aqueous solution was defined as 100, and relative values thereto were used.
smiles,measurement,setting,value
"CC(C)[C@@H]1NC(=O)[C@H](C(C)C)NC1=O [compound 11, Cyclo(Val-Val)]","Significant difference (p < 0.05) vs control group, plasma active GLP-1 level","Table 9, Experiment 4",No
same,"Plasma active GLP-1 level (relative value to control group as 100), average value","Table 9, Experiment 4",100
"CC(C)CC1NC(=O)C(CC(=O)O)NC1=O (stereo not drawn) [compound 146, cyclo-aspartyl-leucine]","Significant difference (p < 0.05) vs control group, plasma active GLP-1 level","Table 15, Experiment 10",Yes
same,"Plasma active GLP-1 level (relative value to control group as 100), average value","Table 15, Experiment 10",259
"CCC(C)C1NC(=O)C(CCSC)NC1=O (stereo not drawn) [compound 119, Cyclo(Met-Ile)]","Significant difference (p < 0.05) vs control group, plasma active GLP-1 level","Table 13, Experiment 8",No
same,"Plasma active GLP-1 level (relative value to control group as 100), average value","Table 13, Experiment 8",106
"CCC(C)C1NC(=O)C(C(C)C)NC1=O (stereo not drawn) [compound 138, Cyclo(Ile-Val)]","Significant difference (p < 0.05) vs control group, plasma active GLP-1 level","Table 14, Experiment 9",No
same,"Plasma active GLP-1 level (relative value to control group as 100), average value","Table 14, Experiment 9",96
"CC1NC(=O)C(Cc2ccccc2)NC1=O (stereo not drawn) [compound 52, Cyclo(Ala-Phe)]","Significant difference (p < 0.05) vs control group, plasma active GLP-1 level","Table 10, Experiment 5",No
same,"Plasma active GLP-1 level (relative value to control group as 100), average value","Table 10, Experiment 5",93
"CC[C@H](C)[C@@H]1NC(=O)[C@H](CO)NC1=O [compound 133, cyclo-isoleucyl-serine]","Significant difference (p < 0.05) vs control group, plasma active GLP-1 level","Table 14, Experiment 9",Yes
"CC(C)CC1NC(=O)C(CC(N)=O)NC1=O (stereo not drawn) [compound 106, Cyclo(Asn-Leu)]","Significant difference (p < 0.05) vs control group, plasma active GLP-1 level","Table 13, Experiment 8",No
same,"Plasma active GLP-1 level (relative value to control group as 100), average value","Table 13, Experiment 8",94
"CC(C)C[C@@H]1NC(=O)[C@H](Cc2cnc[nH]2)NC1=O [compound 103, Cyclo(His-Leu)]","Significant difference (p < 0.05) vs control group, plasma active GLP-1 level","Table 13, Experiment 8",No
same,"Plasma active GLP-1 level (relative value to control group as 100), average value","Table 13, Experiment 8",94
"O=C1N[C@@H](Cc2c[nH]c3ccccc23)C(=O)N[C@H]1Cc1c[nH]c2ccccc12 [compound 75, cyclo-tryptophanyl-tryptophan]","Significant difference (p < 0.05) vs control group, plasma active GLP-1 level","Table 8, Experiment 3",Yes
same,"Plasma active GLP-1 level (relative value to control group as 100), average value","Table 8, Experiment 3",229
"CC1NC(=O)C(Cc2c[nH]c3ccccc23)NC1=O (stereo not drawn) [compound 76, Cyclo(Trp-Ala)]","Significant difference (p < 0.05) vs control group, plasma active GLP-1 level","Table 11, Experiment 6",No
same,"Plasma active GLP-1 level (relative value to control group as 100), average value","Table 11, Experiment 6",110
"C[C@@H](O)[C@@H]1NC(=O)[C@H](Cc2c[nH]c3ccccc23)NC1=O [compound 79, Cyclo(Trp-Thr)]","Significant difference (p < 0.05) vs control group, plasma active GLP-1 level","Table 11, Experiment 6",No
same,"Plasma active GLP-1 level (relative value to control group as 100), average value","Table 11, Experiment 6",100
"CC(C)CC1NC(=O)C(CCC(N)=O)NC1=O (stereo not drawn) [compound 152, cyclo-glutaminyl-leucine]","Significant difference (p < 0.05) vs control group, plasma active GLP-1 level","Table 15, Experiment 10",Yes
same,"Plasma active GLP-1 level (relative value to control group as 100), average value","Table 15, Experiment 10",282
"CC1NC(=O)C(C(C)C)NC1=O (stereo not drawn) [compound 122, Cyclo(Val-Ala)]","Significant difference (p < 0.05) vs control group, plasma active GLP-1 level","Table 13, Experiment 8",No
same,"Plasma active GLP-1 level (relative value to control group as 100), average value","Table 13, Experiment 8",94
"CCC(C)C1NC(=O)C(C)NC1=O (stereo not drawn) [compound 123, Cyclo(Ile-Ala)]","Significant difference (p < 0.05) vs control group, plasma active GLP-1 level","Table 14, Experiment 9",No
same,"Plasma active GLP-1 level (relative value to control group as 100), average value","Table 14, Experiment 9",120
"CC(C)C1NC(=O)C(C(C)O)NC1=O (stereo not drawn) [compound 139, cyclo-valyl-threonine]","Significant difference (p < 0.05) vs control group, plasma active GLP-1 level","Table 14, Experiment 9",Yes
same,"Plasma active GLP-1 level (relative value to control group as 100), average value","Table 14, Experiment 9",120
"CCC(C)C1NC(=O)C(Cc2c[nH]c3ccccc23)NC1=O (stereo not drawn) [compound 62, Cyclo(Trp-Ile)]","Significant difference (p < 0.05) vs control group, plasma active GLP-1 level","Table 8, Experiment 3",No
same,"Plasma active GLP-1 level (relative value to control group as 100), average value","Table 8, Experiment 3",178
"CC[C@H](C)[C@@H]1NC(=O)[C@H](CCCCN)NC1=O [compound 150, cyclo-isoleucyl-lysine]","Significant difference (p < 0.05) vs control group, plasma active GLP-1 level","Table 15, Experiment 10",Yes
same,"Plasma active GLP-1 level (relative value to control group as 100), average value","Table 15, Experiment 10",282
"CSCCC1NC(=O)C(Cc2cnc[nH]2)NC1=O (stereo not drawn) [compound 120, cyclo-methionyl-histidine]","Significant difference (p < 0.05) vs control group, plasma active GLP-1 level","Table 13, Experiment 8",Yes
same,"Plasma active GLP-1 level (relative value to control group as 100), average value","Table 13, Experiment 8",154
"CSCC[C@@H]1NC(=O)[C@H](CC(C)C)NC1=O [compound 72, Cyclo(Met-Leu)]","Significant difference (p < 0.05) vs control group, plasma active GLP-1 level","Table 11, Experiment 6",No
same,"Plasma active GLP-1 level (relative value to control group as 100), average value","Table 11, Experiment 6",90
"CSCCC1NC(=O)C(Cc2ccccc2)NC1=O (stereo not drawn) [compound 67, Cyclo(Met-Phe)]","Significant difference (p < 0.05) vs control group, plasma active GLP-1 level","Table 10, Experiment 5",No
same,"Plasma active GLP-1 level (relative value to control group as 100), average value","Table 10, Experiment 5",93
"NC(=O)C[C@@H]1NC(=O)[C@H](Cc2ccc(O)cc2)NC1=O [compound 92, Cyclo(Asn-Tyr)]","Significant difference (p < 0.05) vs control group, plasma active GLP-1 level","Table 12, Experiment 7",No
same,"Plasma active GLP-1 level (relative value to control group as 100), average value","Table 12, Experiment 7",181
"CSCCC1NC(=O)C(CCSC)NC1=O (stereo not drawn) [compound 12, Cyclo(Met-Met)]","Significant difference (p < 0.05) vs control group, plasma active GLP-1 level","Table 9, Experiment 4",No
same,"Plasma active GLP-1 level (relative value to control group as 100), average value","Table 9, Experiment 4",110
"NC(=O)CC[C@@H]1NC(=O)[C@H](Cc2ccc(O)cc2)NC1=O [compound 93, cyclo-glutaminyl-tyrosine]","Significant difference (p < 0.05) vs control group, plasma active GLP-1 level","Table 12, Experiment 7",Yes
same,"Plasma active GLP-1 level (relative value to control group as 100), average value","Table 12, Experiment 7",344
"CCC(C)C1NC(=O)CNC1=O (stereo not drawn) [compound 156, Cyclo(Ile-Gly)]","Significant difference (p < 0.05) vs control group, plasma active GLP-1 level","Table 15, Experiment 10",No
same,"Plasma active GLP-1 level (relative value to control group as 100), average value","Table 15, Experiment 10",145
"CCC(C)C1NC(=O)C(Cc2ccc(O)cc2)NC1=O (stereo not drawn) [compound 89, Cyclo(Ile-Tyr)]","Significant difference (p < 0.05) vs control group, plasma active GLP-1 level","Table 12, Experiment 7",No
same,"Plasma active GLP-1 level (relative value to control group as 100), average value","Table 12, Experiment 7",222
"CSCC[C@@H]1NC(=O)[C@H]([C@H](C)O)NC1=O [compound 169, cyclo-methionyl-threonine]","Significant difference (p < 0.05) vs control group, plasma active GLP-1 level","Table 15, Experiment 10",Yes
same,"Plasma active GLP-1 level (relative value to control group as 100), average value","Table 15, Experiment 10",282
"O=C1NC(Cc2c[nH]c3ccccc23)C(=O)NC1Cc1ccccc1 (stereo not drawn) [compound 28, cyclo-phenylalanyl-tryptophan]","Significant difference (p < 0.05) vs control group, plasma active GLP-1 level","Table 8, Experiment 3",Yes
same,"Plasma active GLP-1 level (relative value to control group as 100), average value","Table 8, Experiment 3",255
"CC(C)[C@@H]1NC(=O)[C@H](CC(N)=O)NC1=O [compound 141, cyclo-asparaginyl-valine]","Significant difference (p < 0.05) vs control group, plasma active GLP-1 level","Table 15, Experiment 10",Yes
same,"Plasma active GLP-1 level (relative value to control group as 100), average value","Table 15, Experiment 10",191
"CC[C@H](C)[C@@H]1NC(=O)[C@H]([C@@H](C)CC)NC1=O [compound 14, Cyclo(Ile-Ile)]","Significant difference (p < 0.05) vs control group, plasma active GLP-1 level","Table 9, Experiment 4",No
same,"Plasma active GLP-1 level (relative value to control group as 100), average value","Table 9, Experiment 4",105
"O=C(O)C[C@@H]1NC(=O)[C@H](Cc2ccc(O)cc2)NC1=O [compound 91, Cyclo(Asp-Tyr)]","Significant difference (p < 0.05) vs control group, plasma active GLP-1 level","Table 12, Experiment 7",No
same,"Plasma active GLP-1 level (relative value to control group as 100), average value","Table 12, Experiment 7",181
"O=C(O)CC[C@@H]1NC(=O)[C@H](Cc2ccc(O)cc2)NC1=O [compound 87, Cyclo(Glu-Tyr)]","Significant difference (p < 0.05) vs control group, plasma active GLP-1 level","Table 12, Experiment 7",No
same,"Plasma active GLP-1 level (relative value to control group as 100), average value","Table 12, Experiment 7",141
"CC(C)C1NC(=O)C(Cc2cnc[nH]2)NC1=O (stereo not drawn) [compound 108, Cyclo(Val-His)]","Significant difference (p < 0.05) vs control group, plasma active GLP-1 level","Table 13, Experiment 8",No
same,"Plasma active GLP-1 level (relative value to control group as 100), average value","Table 13, Experiment 8",118
"CC1NC(=O)C(CS)NC1=O (stereo not drawn) [compound 177, cyclo-alanyl-cysteine]","Significant difference (p < 0.05) vs control group, plasma active GLP-1 level","Table 15, Experiment 10",Yes
same,"Plasma active GLP-1 level (relative value to control group as 100), average value","Table 15, Experiment 10",282
"CSCCC1NC(=O)C(Cc2c[nH]c3ccccc23)NC1=O (stereo not drawn) [compound 83, Cyclo(Trp-Met)]","Significant difference (p < 0.05) vs control group, plasma active GLP-1 level","Table 11, Experiment 6",No
same,"Plasma active GLP-1 level (relative value to control group as 100), average value","Table 11, Experiment 6",110
"NC(=O)CC[C@@H]1NC(=O)[C@H](Cc2c[nH]c3ccccc23)NC1=O [compound 82, Cyclo(Trp-Gln)]","Significant difference (p < 0.05) vs control group, plasma active GLP-1 level","Table 11, Experiment 6",No
same,"Plasma active GLP-1 level (relative value to control group as 100), average value","Table 11, Experiment 6",90
